SMILES strings stand for the structures. In brackets after ≈: the same amount, converted by molar mass.

One assay has as its system PANC-1 (pancreatic cancer) cells. Description: MTT cell growth inhibition, solid tumor cells. The class given is cell-based, human. Conditions: Homo sapiens; PANC-1, 72 h, MTT; read-out: IC50. The procedure, abridged:
(§1)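 Human tumor cells seeded at 6000 per well grow 24 h in serum-supplemented (10% FBS) high-glucose DMEM. A 72 h incubation with graded compound doses at 37 °C follows, and MTT reports viable cell number.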
As a reminder, the IC50 is the concentration that gives 50% inhibition. As for `COc1ccc2cc1Oc1ccc(cc1)C[C@H]1c3cc(c(OC)cc3CCN1C)Oc1c(OC3CCCC3)c(OC)cc3c1[C@H](C2)N(C)CC3` [BS-FC-220], the IC50 amounted to 2.79 µg/mL (≈ 4.12 µM).

Staying with this assay, now noted: Homo sapiens; PANC-1, 72 h, MTT; read-out: IC90.
As usually defined, the IC90 is the concentration at which the effect reaches the 90% level. Take `COc1ccc2cc1Oc1ccc(cc1)C[C@H]1c3cc(c(OC)cc3CCN1C)Oc1c(OC3CCCC3)c(OC)cc3c1[C@H](C2)N(C)CC3` [BS-FC-220]: the IC90 was 7.68 µg/mL (≈ 11.3 µM).

A further assay deals with PC-3 (prostate cancer) cells. Description: MTT cell growth inhibition, solid tumor cells. Conditions: Homo sapiens; PC-3, 72 h, MTT; read-out: IC50. In kind it is cell-based, human. Put shortly: as §1
With `COc1ccc2cc1Oc1ccc(cc1)C[C@H]1c3cc(c(OC)cc3CCN1C)Oc1c(OC3CCCC3)c(OC)cc3c1[C@H](C2)N(C)CC3` [BS-FC-220], the IC50 was found to be 4.55 µg/mL (≈ 6.72 µM).

The same assay, now with this note: Homo sapiens; PC-3, 72 h, MTT; read-out: IC90.
For the molecule `COc1ccc2cc1Oc1ccc(cc1)C[C@H]1c3cc(c(OC)cc3CCN1C)Oc1c(OC3CCCC3)c(OC)cc3c1[C@H](C2)N(C)CC3` [BS-FC-220], the IC90 was 7.61 µg/mL (≈ 11.2 µM).

A further assay has as its system SK-OV-3 (ovarian cancer) cells. Description: MTT cell growth inhibition, solid tumor cells. In kind it is cell-based, human. The note with it: Homo sapiens; SK-OV-3, 72 h, MTT; read-out: IC50. The procedure, abridged:
as §1
Regarding `COc1ccc2cc1Oc1ccc(cc1)C[C@H]1c3cc(c(OC)cc3CCN1C)Oc1c(OC3CCCC3)c(OC)cc3c1[C@H](C2)N(C)CC3` [BS-FC-220], the IC50 was 5.41 µg/mL (≈ 7.99 µM).

The same assay, now with this note: Homo sapiens; SK-OV-3, 72 h, MTT; read-out: IC90.
As for `COc1ccc2cc1Oc1ccc(cc1)C[C@H]1c3cc(c(OC)cc3CCN1C)Oc1c(OC3CCCC3)c(OC)cc3c1[C@H](C2)N(C)CC3` [BS-FC-220], the IC90 was found to be 14.2 µg/mL (≈ 21.1 µM).

The next assay relates to CaEs-17 (esophageal cancer) cells. Description: MTT cell growth inhibition, solid tumor cells. In kind it is cell-based, human. Conditions: Homo sapiens, CaEs17; CaEs-17, 72 h, MTT; read-out: IC50. Put shortly:
as §1
`COc1ccc2cc1Oc1ccc(cc1)C[C@H]1c3cc(c(OC)cc3CCN1C)Oc1c(OC3CCCC3)c(OC)cc3c1[C@H](C2)N(C)CC3` [BS-FC-220]: the IC50 is 2.6 µg/mL (≈ 3.84 µM).

Staying with this assay, now noted: Homo sapiens, CaEs17; CaEs-17, 72 h, MTT; read-out: IC90.
Consider `COc1ccc2cc1Oc1ccc(cc1)C[C@H]1c3cc(c(OC)cc3CCN1C)Oc1c(OC3CCCC3)c(OC)cc3c1[C@H](C2)N(C)CC3` [BS-FC-220], for which the IC90 is 9.32 µg/mL (≈ 13.8 µM).

Another assay has as its system CNE (nasopharyngeal carcinoma) cells. Description: MTT cell growth inhibition, solid tumor cells. In kind it is cell-based, human. The note with it: Homo sapiens; CNE, 72 h, MTT; read-out: IC50. The procedure, abridged:
as §1
For `COc1ccc2cc1Oc1ccc(cc1)C[C@H]1c3cc(c(OC)cc3CCN1C)Oc1c(OC3CCCC3)c(OC)cc3c1[C@H](C2)N(C)CC3` [BS-FC-220], the IC50 is 3.2 µg/mL (≈ 4.73 µM).

Still in this assay, the particulars now being: Homo sapiens; CNE, 72 h, MTT; read-out: IC90.
`COc1ccc2cc1Oc1ccc(cc1)C[C@H]1c3cc(c(OC)cc3CCN1C)Oc1c(OC3CCCC3)c(OC)cc3c1[C@H](C2)N(C)CC3` [BS-FC-220]: the IC90 stood at 7.6 µg/mL (≈ 11.2 µM).

For another assay, the system named is RPMI 8226 (multiple myeloma) cells. Description: MTT cell growth inhibition, multiple myeloma cells. In kind it is cell-based, human. Conditions: Homo sapiens; RPMI 8226, 72 h, MTT; read-out: IC50. Put shortly:
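RPMI 8226 myeloma cells, 6000 per well in RPMI-1640 with 10% FBS, were dosed with fangchinoline derivatives at several concentrations the day after seeding. Incubation ran 72 h at 37° C in 5% CO2, then viable cells were measured by MTT.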
As to `COc1ccc2cc1Oc1ccc(cc1)C[C@H]1c3cc(c(OC)cc3CCN1C)Oc1c(OC3CCCC3)c(OC)cc3c1[C@H](C2)N(C)CC3` [BS-FC-220], the IC50 stood at 0.12 µg/mL (≈ 0.177 µM).

The assay is the same for the next values; noted with them: Homo sapiens; RPMI 8226, 72 h, MTT; read-out: IC90.
As to `COc1ccc2cc1Oc1ccc(cc1)C[C@H]1c3cc(c(OC)cc3CCN1C)Oc1c(OC3CCCC3)c(OC)cc3c1[C@H](C2)N(C)CC3` [BS-FC-220], the IC90 amounted to 0.5 µg/mL (≈ 0.739 µM).

A further assay concerns Kasumi-1 (acute myeloid leukemia M2 type) cells. Description: MTT cell growth inhibition, leukemia cells. The class given is cell-based, human. Conditions: Homo sapiens; Kasumi-1, 72 h, MTT; read-out: IC50. Put shortly: (§2)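 MTT read-out of viable cells after 72 h compound exposure at 37° C., 5% CO2; 6000 cells/well in RPMI-1640 + 10% FBS, dosed one day after seeding over a range of concentrations.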
For the molecule `COc1ccc2cc1Oc1ccc(cc1)C[C@H]1c3cc(c(OC)cc3CCN1C)Oc1c(OC3CCCC3)c(OC)cc3c1[C@H](C2)N(C)CC3` [BS-FC-220], the IC50 came out at 1.15 µg/mL (≈ 1.7 µM).

Still in this assay, the particulars now being: Homo sapiens; Kasumi-1, 72 h, MTT; read-out: IC90.
With `COc1ccc2cc1Oc1ccc(cc1)C[C@H]1c3cc(c(OC)cc3CCN1C)Oc1c(OC3CCCC3)c(OC)cc3c1[C@H](C2)N(C)CC3` [BS-FC-220], the IC90 turned out to be 3.72 µg/mL (≈ 5.5 µM).

The next assay concerns H9 (acute lymphoblastic leukemia) cells. Description: MTT cell growth inhibition, leukemia cells. In kind it is cell-based, human. Conditions: Homo sapiens; H9, 72 h, MTT; read-out: IC50. Put shortly: as §2
For the molecule `COc1ccc2cc1Oc1ccc(cc1)C[C@H]1c3cc(c(OC)cc3CCN1C)Oc1c(OC3CCCC3)c(OC)cc3c1[C@H](C2)N(C)CC3` [BS-FC-220], the IC50 was 3.23 µg/mL (≈ 4.77 µM).

The same assay, now with this note: Homo sapiens; H9, 72 h, MTT; read-out: IC90.
`COc1ccc2cc1Oc1ccc(cc1)C[C@H]1c3cc(c(OC)cc3CCN1C)Oc1c(OC3CCCC3)c(OC)cc3c1[C@H](C2)N(C)CC3` [BS-FC-220]: the IC90 is 6.64 µg/mL (≈ 9.81 µM).

In a further assay the test system is Jurkat (acute lymphoblastic leukemia) cells. Description: MTT cell growth inhibition, leukemia cells. In kind it is cell-based, human. Conditions: Homo sapiens; Jurkat, 72 h, MTT; read-out: IC50. Put shortly:
as §2
In the case of `COc1ccc2cc1Oc1ccc(cc1)C[C@H]1c3cc(c(OC)cc3CCN1C)Oc1c(OC3CCCC3)c(OC)cc3c1[C@H](C2)N(C)CC3` [BS-FC-220], the IC50 amounted to 0.93 µg/mL (≈ 1.37 µM).

The assay is the same for the next values; noted with them: Homo sapiens; Jurkat, 72 h, MTT; read-out: IC90.
As to `COc1ccc2cc1Oc1ccc(cc1)C[C@H]1c3cc(c(OC)cc3CCN1C)Oc1c(OC3CCCC3)c(OC)cc3c1[C@H](C2)N(C)CC3` [BS-FC-220], the IC90 worked out at 3.09 µg/mL (≈ 4.57 µM).

(Values after patent publication US9328122B2, “7-substituted Hanfangichin B derivative, and preparation method and use thereof” (HANGZHOU BENSHENG PHARMACEUTICAL CO., LTD., priority 2012, dated 2016).)
